Measured values taken from patent publication US20250296937A1, “CYCLIC BISBENZYL TETRAHYDROISOQUINOLINE COMPOUND, AND PREPARATION METHOD THEREFOR AND USE THEREOF” (Shanghai Institute of Materia Medica, Chinesse Academy of …, priority 2021, published 2025).
“Also recorded” adds a separate entry of the source.

Test system: LPS-induced acute inflammation
Test: In vivo LPS-induced acute inflammation in mice (Q-PCR of lung/spleen, serum Elisa)
Set-up: species or system C57BL/6 mice
Conditions: 30 mg/kg orally 2 h after 3 mg/kg LPS i.p.; samples 4 h after administration
Procedure: In this example, the effects of compounds on LPS-induced acute inflammation model in vivo were analyzed by the expression levels of inflammatory factors; the mRNA expression levels of tissue inflammation-related indicators were detected by the method of real-time quantitative PCR (Q-PCR), and the levels of inflammatory factors in serum were detected by the method of Elisa. C57BL/6 mice were purchased from SLAC, and the Elisa kits were purchased from Novusbio, with item no. 890860 for IL-6 and item no. 266117 for TNF-α. […]
Construction of inflammation model in mice: C57BL/6 mice were randomly divided into three groups: one control group, five experimental animals; one LPS modeling group, with five experimental animals; and two treatment groups, with five experimental animals. […] The blood was collected from the orbit of mice in each group at 4 h after the administration of the drug, and the spleen and lung tissues were collected after the euthanasia. mRNA was extracted from lung and spleen tissues respectively, and real-time quantitative PCR was performed after reverse transcription to assess the mRNA expression level of inflammation-related indicators, and Elisa assay was performed after serum extraction to assess the secretion level of inflammatory factors.

SMILES: COc1cc2c3cc1Oc1c(OC)c(OC)cc4c1[C@H](Cc1ccc(cc1)Oc1cc(ccc1C(N)=O)C[C@H]3N(C)CC2)N(C)CC4 [Compound 4]
- inflammatory factors and chemokines, mRNA levels and cytokine secretion levels, LPS-induced acute inflammation in mice: significantly inhibited; also recorded: significant decrease
